Patent publication EP3057950B1, “PHENYL LINKED QUINOLINYL MODULATORS OF ROR-GAMMA-T” (Janssen Pharmaceutica NV, priority 2013, dated 2015)
Where a name gives a salt, the structure may show the parent alone.

Experiments:
[1] = molecular target: T1, wild type human RORγt ligand binding domain (RORγt LBD) (Homo sapiens, UniProt P51449); assay: RORγt ThermoFluor® Assay (thermal shift, binding affinity); conditions: pH 7.0, estimated from concentration response curves
T1 construct: His-tag (N); TurboTEV protease cleavage site (ENLYFQG) (N); made in house; host or cells: E. coli (pHIS1, modified pET expression vector)
T1 sequence (P51449 269-508 limits assumed): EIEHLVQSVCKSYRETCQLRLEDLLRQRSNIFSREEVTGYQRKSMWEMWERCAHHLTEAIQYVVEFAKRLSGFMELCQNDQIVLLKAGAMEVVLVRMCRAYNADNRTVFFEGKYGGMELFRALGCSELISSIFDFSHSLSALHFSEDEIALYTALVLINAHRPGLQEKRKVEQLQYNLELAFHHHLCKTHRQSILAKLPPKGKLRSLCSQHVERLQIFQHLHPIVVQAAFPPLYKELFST
Method in brief: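 Thermal shift assay on 0.065 mg/mL RORγt LBD with 60 µM 1,8-ANS in 100 mM Hepes pH 7.0, 10 mM NaCl, 2.5 mM GSH, 0.002% Tween-20. Heated at 1 °C/min, fluorescence read at 500 nm.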

[2] = tested on: IL-17 production by CD4 T cells; assay: Human Th17 Assay (IL-17 production by CD4 T cells under Th17 differentiation conditions); assay type: cell-based; conditions: 3 days, IL-17 in supernatant
Protocol: The human Th17 assay tests the effect of RORγt modulatory compounds on IL-17 production by CD4 T cells under conditions which favor Th17 differentiation. Total CD4^+ T cells were isolated from the peripheral blood mononuclear cells (PBMC) of healthy donors using a CD4^+ T cell isolation kit II, following the manufacturer's instructions (Miltenyi Biotec). […] 50 µL of compound at titrated concentrations in DMSO were added into each well at final DMSO concentration at 0.2%. Cells were incubated for 1 hour, then 50 µL of Th17 cell differentiation medium was added to each well. The final concentrations of antibodies and cytokines (R&D Systems) in differentiation medium were: 3x10^6/mL anti-CD3/CD28 beads (prepared using human T cell activation/expansion kit, Miltenyi Biotec), 10 µg/mL anti-IL4, 10 µg/mL anti-IFNγ, 10 ng/mL […], 10 ng/mL IL23, 50 ng/mL IL6, 3 ng/mL TGFβ and 20 U/mL IL2. Cells were cultured at 37 °C and 5% CO2 for 3 days. Supernatants were collected and the accumulated IL-17 in culture was measured by using MULTI-SPOT® Cytokine Plate following manufacture's instruction (Meso Scale Discovery). The plate was read using Sector Imager 6000, and IL-17 concentration was extrapolated from the standard curve. The IC50s were determined by GraphPad.

[3] = molecular target: T2, wild type human RORγt LBD (Homo sapiens, UniProt P51449); assay: RORγt Reporter Assay (GAL4-RORγt LBD luciferase in HEK293T cells); assay type: cell-based; conditions: HEK293T cells; for IC50: compounds for 24 hours, read-out: RORγt reporter Assay, IC50; for inhibition at 6 µM: HEK-293T, read-out: RORγt reporter Assay, % inhibition @ 6 µM, @ 6 µM
T2 construct: expressed in transfected cells; host or cells: HEK293T
T2 sequence (P51449 269-508 limits assumed): T1 sequence (P51449 269-508 limits assumed)
Method in brief: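 HEK293T cells transiently co-transfected with GAL4-DBD–human RORγt LBD (or AF2 mutant) and GAL4-responsive firefly luciferase reporter; renilla luciferase normalised transfection and viability. Compounds applied 24 h in 5% lipid-reduced FCS; firefly/renilla ratio plotted against concentration.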

Structure (SMILES) | Kd [1] [nM] | IC50 [2] [nM] | RORγt reporter Assay, % inhibition @ 6 µM [3] [%] | IC50 [3] [nM] | IC50 ([2]; Homo sapiens, CD4+ T, 72 h) [nM] | inhibition at 6 µM [3] [%]
COc1nc2ccc(C(O)(c3cncn3C)c3cnnn3C)cc2c(Cl)c1-c1cccc(C(F)(F)F)c1 (single isomer, unassigned) [Example 3c, (4-Chloro-2-methoxy-3-(3-(trifluoromethyl)phenyl)quinolin-6-yl)(1-methyl-1H-1,2,3-triazol-5-yl)(1-methyl-1H-imidazol-5-yl)methanol] | 2.3 | 43 | 98 | 6.6 |  | 
COc1nc2ccc(C(O)(c3cncn3C)c3cnnn3C)cc2c(C#N)c1-c1cccc(C(F)(F)F)c1 (single isomer, unassigned) [Example 4b, 6-(Hydroxy(1-methyl-1H-1,2,3-triazol-5-yl)(1-methyl-1H-imidazol-5-yl)methyl)-2-methoxy-3-(3-(trifluoromethyl)phenyl)quinoline-4-carbonitrile] | 4.4 |  |  | 9.5 | 61 | 98
COc1nc2ccc(C(O)(c3cncn3C)c3cnnn3C)cc2c(C#N)c1-c1cccc(C(F)(F)F)c1 (single isomer, unassigned) [Example 4c, 6-(Hydroxy(1-methyl-1H-1,2,3-triazol-5-yl)(1-methyl-1H-imidazol-5-yl)methyl)-2-methoxy-3-(3-(trifluoromethyl)phenyl)quinoline-4-carbonitrile] | 1.4 | 31 | 98 | 11 |  | 
COc1nc2ccc(C(O)(c3ccc(C(F)(F)F)nc3)c3cncn3C)cc2c(Cl)c1-c1ccc(Cl)s1 (single isomer, unassigned) [Example 14b, [4-Chloro-3-(5-chlorothiophen-2-yl)-2-methoxyquinolin-6-yl](1-methyl-1H-imidazol-5-yl)[6-(trifluoromethyl)pyridin-3-yl]methanol] | 5.2 | 79 | 53 | 240 |  | 
COc1nc2ccc(C(O)(c3ccc(C(F)(F)F)nc3)c3cncn3C)cc2c(Cl)c1-c1ccc(Cl)s1 (single isomer, unassigned) [Example 14c, [4-Chloro-3-(5-chlorothiophen-2-yl)-2-methoxyquinolin-6-yl](1-methyl-1H-imidazol-5-yl)[6-(trifluoromethyl)pyridin-3-yl]methanol] | 140 | 310 | 87 | 510 |  | 
COc1nc2c(C)cc(C(O)(c3ccc(C(F)(F)F)nc3)c3cncn3C)cc2c(C#N)c1-c1ccc(OC(F)(F)F)cc1 (single isomer, unassigned) [Example 19b, 6-(Hydroxy(1-methyl-1H-imidazol-5-yl)(6-(trifluoromethyl)pyridin-3-yl)methyl)-2-methoxy-8-methyl-3-(4-(trifluoromethoxy)phenyl)quinoline-4-carbonitrile] | 360 |  | 94 | 300 | 400 | 
CC(=O)N1CCC(C(O)(c2ccccc2)c2cc(C)c3nc(C#N)c(-c4ccccc4)c(C#N)c3c2)CC1 (single isomer, unassigned) [Example 21c, 6-((1-Acetylpiperidin-4-yl)(hydroxy)(phenyl)methyl)-8-methyl-3-phenylquinoline-2,4-dicarbonitrile] | 110 |  | 96 | 190 | 180 | 
COc1nc2ccc(C(O)(c3ccc(C(F)(F)F)nc3)c3cncn3C)cc2c(Cl)c1-c1cncnc1 (stereo not drawn) [Example 10, (4-Chloro-2-methoxy-3-pyrimidin-5-ylquinolin-6-yl)(1-methyl-1H-imidazol-5-yl)[6-(trifluoromethyl)pyridin-3-yl]methanol•TFA] | 200 |  |  | 320 | 1500 | 89
COc1nc2ccc(C(O)(c3ccc(C(F)(F)F)nc3)c3cncn3C)cc2c(Cl)c1-c1ccc(C#N)cc1 (stereo not drawn) [Example 16, 4-(4-Chloro-6-{hydroxy(1-methyl-1H-imidazol-5-yl)[6-(trifluoromethyl)pyridin-3-yl]methyl}-2-methoxyquinolin-3-yl)benzonitrile•TFA] | 27 |  |  | 200 | 81 | 86

Other lines, results leading:

Kd [1] [nM] | IC50 [2] [nM] | RORγt reporter Assay, % inhibition @ 6 µM [3] [%] | IC50 [3] [nM] | IC50 ([2]; Homo sapiens, CD4+ T, 72 h) [nM] | inhibition at 6 µM [3] [%] | Structure (SMILES)
150 |  | 100 | 230 | 400 |  | Cc1cc(C(O)(c2ccc(Cl)cc2)c2cncn2C)cc2c(C#N)c(-c3ccccc3)c(C#N)nc12 (single isomer, unassigned) [Example 23c, 6-((4-Chlorophenyl)(hydroxy)(1-methyl-1H-imidazol-5-yl)methyl)-8-methyl-3-phenylquinoline-2,4-dicarbonitrile]
61 |  | 95 | 160 | 160 |  | Cc1cc(C(O)(c2ccc(C(F)(F)F)nc2)c2cncn2C)cc2c(C#N)c(-c3ccccc3)c(C#N)nc12 (single isomer, unassigned) [Example 25c, 6-(Hydroxy(1-methyl-1H-imidazol-5-yl)(6-(trifluoromethyl)pyridin-3-yl)methyl)-8-methyl-3-phenylquinoline-2,4-dicarbonitrile]
77 |  | 99 | 130 | 290 |  | COc1c(-c2ccccc2)c(C(F)(F)F)nc2ccc(C(O)(c3ccc(Cl)cc3)c3cncn3C)cc12 (single isomer, unassigned) [Example 33c, (4-Chlorophenyl)(4-methoxy-3-phenyl-2-(trifluoromethyl)quinolin-6-yl)(1-methyl-1H-imidazol-5-yl)methanol]
100 |  | 96 | 270 | 260 |  | CC(=O)N1CCC(C(O)(c2ccc3nc(C(F)(F)F)c(-c4ccccc4)c(Cl)c3c2)c2cncn2C)CC1 (single isomer, unassigned) [Example 34c, 1-(4-((4-Chloro-3-phenyl-2-(trifluoromethyl)quinolin-6-yl)(hydroxy)(1-methyl-1H-imidazol-5-yl)methyl)piperidin-1-yl)ethanone]
1.4 | 7 |  | 8.6 |  | 102 | COc1nc2ccc(C(O)(c3cnnn3C)c3cnc(C)n3C)cc2c(Cl)c1-c1ccccc1 (single isomer, unassigned) [Example 41b, (4-Chloro-2-methoxy-3-phenylquinolin-6-yl)(1,2-dimethyl-1H-imidazol-5-yl)(1-methyl-1H-1,2,3-triazol-5-yl)methanol]
6.5 | 210 | 102 | 270 |  |  | COc1nc2ccc(C(O)(c3cnnn3C)c3cnc(C)n3C)cc2c(Cl)c1-c1ccccc1 (single isomer, unassigned) [Example 41c, (4-Chloro-2-methoxy-3-phenylquinolin-6-yl)(1,2-dimethyl-1H-imidazol-5-yl)(1-methyl-1H-1,2,3-triazol-5-yl)methanol]
1.9 |  | 100 | 25 | 54 |  | Cc1nc(C)c(C(O)(c2ccc3nc(C#N)c(-c4ccccc4)c(C#N)c3c2)c2cnnn2C)s1 (single isomer, unassigned) [Example 47c, 6-((2,4-Dimethylthiazol-5-yl)(hydroxy)(1-methyl-1H-1,2,3-triazol-5-yl)methyl)-3-phenylquinoline-2,4-dicarbonitrile]
450 |  |  | 130 | 480 | 105 | Cn1cncc1C(O)(c1ccc2nc(C(F)(F)F)c(-c3ccccc3)c(Cl)c2c1)c1ccccn1 (stereo not drawn) [Example 61, (4-Chloro-3-phenyl-2-(trifluoromethyl)quinolin-6-yl)(1-methyl-1H-imidazol-5-yl)(pyridin-2-yl)methanol•TFA]
20000 |  |  | 700 | ~6000 | 80 | OC(c1ccccc1)(c1ccncc1)c1ccc2nc(Cl)c(-c3ccccc3Cl)c(Cl)c2c1 (stereo not drawn) [Example 73, (2,4-Dichloro-3-(2-chlorophenyl)quinolin-6-yl)(phenyl)(pyridin-4-yl)methanol]
